# Entries after “also recorded” stand apart in the source; their conditions may differ. Where a SMILES comes first, the peptide text is derived from it.
# Test system: human tumor cells
# Assay: Cytotoxic activity screening of peptide library on human tumor cell lines, SRB method
# Format: cell-based
# Details: for Cytotoxic activity in vitro: SRB method, cytotoxic = dose-dependent 50% inhibition of proliferation, GI50 below 100 μM in at least one cell line; for cytotoxic / biological activity in vitro on tumor cells: peptide library screening
# Method: Negative control cells were cultured on a volume of vehicle equal to that of the experimental samples. An “x-y” curve (dose-response) was established with the percent of surviving cells, compared in respect to the negative control cells, and the following parameters were estimated: 50% growth inhibition (GI50); Total growth inhibition (TGI); and the lethal concentration 50 (LC50), that is the concentration causing the 50% of cell death (Boyd M R, Paull K D, and Rubinstein L R (1992) “Data display and analysis strategies for the NCI Disease Oriented In-Vitro Antitumor Drug Screen, in Cytotoxic Anticancer Drugs: Models and Concept for Drug Discovery and Development” (Baleriote F A, Corbett T H and Baker L H eds) pp 11-34, Kluwer Academia Publishers, Boston).
# Were considered as cytotoxic peptides all those peptides being able of inhibiting 50% of the cellular proliferation, in a dose-dependent manner, and showing GI50 values below 100 μM, at least in one of the cell lines studied. The human tumor cell lines used were: HEp-2 (larynx carcinoma), A549 (lung epithelial adenocarcinoma), M14 (melanoma), Colo 205 (colon adenocarcinoma), Ls174T (colon adenocarcinoma), LnCAP (prostate carcinoma), PC-3 (prostate carcinoma) and H 125 (non-small cell lung adenocarcinoma). Represented are primary sequences for the designed peptides, the code used for its generation and their respective cytotoxic capacity on human tumor cells.
smiles,measurement,value
CC[C@H](C)[C@H](NC(=O)[C@H](CCCNC(=N)N)NC(=O)[C@H](CCC(N)=O)NC(=O)[C@H](CC(N)=O)NC(=O)[C@H](C)NC(=O)[C@@H](NC(=O)[C@H](Cc1ccc(O)cc1)NC(=O)CNC(=O)[C@@H](N)CO)[C@@H](C)O)C(=O)N[C@@H](CC(N)=O)C(=O)N[C@@H](CC(C)C)C(=O)N[C@@H](CC(N)=O)C(=O)N[C@@H](CCC(=O)O)C(=O)N[C@@H](CCCCN)C(=O)N[C@@H](CO)C(=O)N[C@@H](Cc1ccccc1)C(=O)N[C@@H](CO)C(=O)N[C@@H](CC(=O)O)C(=O)N[C@H](C(=O)NCC(N)=O)C(C)C [Peptide A07P42] (H-SGYTANQRINLNEKSFSDVG-NH2),Cytotoxic activity in vitro,"− (symbol − indicates its absence, following criteria established in Example 2)"
CC(C)C[C@H](NC(=O)[C@@H](NC(=O)[C@H](CC(=O)O)NC(=O)[C@H](CC(N)=O)NC(=O)CNC(=O)[C@H](C)NC(=O)CNC(=O)CNC(=O)[C@H](CCCCN)NC(=O)[C@H](CC(C)C)NC(=O)[C@@H](NC(=O)[C@H](CC(N)=O)NC(=O)[C@H](CC(N)=O)NC(=O)[C@H](C)N)C(C)C)C(C)C)C(=O)N[C@@H](Cc1ccccc1)C(=O)NCC(=O)NCC(=O)NCC(=O)NCC(=O)N[C@@H](C)C(N)=O [Peptide A07P43] (H-ANNVLKGGAGNDVLFGGGGA-NH2),Cytotoxic activity in vitro,"− (symbol − indicates its absence, following criteria established in Example 2)"
CC[C@H](C)[C@H](NC(=O)[C@H](C)NC(=O)[C@H](CC(N)=O)NC(=O)[C@H](CCC(=O)O)NC(=O)[C@@H](NC(=O)[C@@H](NC(=O)[C@@H](NC(=O)CNC(=O)[C@H](C)NC(=O)[C@H](C)NC(=O)[C@@H](NC(=O)[C@H](CO)NC(=O)[C@@H](NC(=O)[C@H](CC(N)=O)NC(=O)CNC(=O)[C@H](CCCCN)NC(=O)[C@H](CC(C)C)NC(=O)CN)C(C)C)[C@@H](C)CC)C(C)C)[C@@H](C)O)[C@@H](C)CC)C(=O)NCC(=O)NCC(N)=O [Peptide A07P44] (H-GLKGNVSIAAGVTIENAIGG-NH2),Cytotoxic activity in vitro,"− (symbol − indicates its absence, following criteria established in Example 2)"
CC[C@H](C)[C@H](NC(=O)[C@H](C)NC(=O)[C@H](CC(N)=O)NC(=O)[C@H](CCC(=O)O)NC(=O)[C@@H](NC(=O)[C@@H](NC(=O)[C@@H](NC(=O)CN)C(C)C)[C@@H](C)O)[C@@H](C)CC)C(=O)NCC(=O)NCC(=O)N[C@@H](CO)C(=O)NCC(=O)N[C@@H](CC(N)=O)C(=O)N[C@@H](CC(=O)O)C(=O)N[C@H](C(=O)N[C@H](C(=O)N[C@H](C(=O)NCC(=O)N[C@@H](CC(N)=O)C(=O)N[C@@H](C)C(N)=O)C(C)C)[C@@H](C)CC)C(C)C [Peptide A07P45] (H-GVTIENAIGGSGNDVIVGNA-NH2),Cytotoxic activity in vitro,"− (symbol − indicates its absence, following criteria established in Example 2)"
CC(C)C[C@H](NC(=O)[C@H](CCC(=O)O)NC(=O)[C@H](CC(=O)O)NC(=O)[C@H](C)NC(=O)CNC(=O)CNC(=O)CNC(=O)CNC(=O)[C@H](Cc1ccccc1)NC(=O)[C@H](CC(C)C)NC(=O)[C@@H](NC(=O)[C@H](CC(=O)O)NC(=O)[C@@H](N)CC(N)=O)C(C)C)C(=O)N[C@@H](Cc1c[nH]c2ccccc12)C(=O)NCC(=O)NCC(=O)N[C@@H](C)C(=O)NCC(=O)N[C@@H](CCCCN)C(=O)N[C@@H](CC(=O)O)C(N)=O [Peptide A07P46] (H-NDVLFGGGGADELWGGAGKD-NH2),Cytotoxic activity in vitro,"− (symbol − indicates its absence, following criteria established in Example 2)"
CC[C@H](C)[C@H](NC(=O)[C@H](CO)NC(=O)[C@@H](NC(=O)[C@H](CC(N)=O)NC(=O)CNC(=O)[C@H](CCCCN)NC(=O)[C@H](CC(C)C)NC(=O)CNC(=O)CNC(=O)[C@@H](NC(=O)[C@H](CC(=O)O)NC(=O)[C@H](CO)NC(=O)[C@H](Cc1ccccc1)NC(=O)[C@H](CO)NC(=O)[C@H](CCCCN)NC(=O)[C@H](CCC(=O)O)NC(=O)[C@H](CC(N)=O)NC(=O)[C@@H](N)CC(C)C)C(C)C)C(C)C)C(=O)N[C@@H](C)C(=O)N[C@@H](C)C(N)=O [Peptide A07P47] (H-LNEKSFSDVGGLKGNVSIAA-NH2),Cytotoxic activity in vitro,"− (symbol − indicates its absence, following criteria established in Example 2)"
C[C@H](NC(=O)[C@H](C)NC(=O)[C@H](Cc1ccc(O)cc1)NC(=O)[C@H](Cc1c[nH]cn1)NC(=O)CNC(=O)CNC(=O)[C@H](CC(N)=O)NC(=O)[C@H](CC(=O)O)NC(=O)CNC(=O)CNC(=O)[C@@H](NC(=O)[C@H](CC(N)=O)NC(=O)[C@@H](NC(=O)[C@H](CCC(=O)O)NC(=O)[C@H](CO)NC(=O)[C@H](Cc1c[nH]c2ccccc12)NC(=O)[C@H](Cc1ccc(O)cc1)NC(=O)[C@@H](N)CO)[C@@H](C)O)[C@@H](C)O)C(=O)N[C@@H](C)C(=O)N1CCC[C@H]1C(N)=O [Peptide D06P91] (H-SYWSETNTGGDNGGHYAAAP-NH2),Cytotoxic activity in vitro,"− (symbol − indicates its absence, following criteria established in Example 2)"
CC[C@H](C)[C@H](NC(=O)[C@H](C)NC(=O)[C@H](C)NC(=O)[C@@H](NC(=O)[C@H](CC(=O)O)NC(=O)[C@H](CC(=O)O)NC(=O)[C@H](CC(C)C)NC(=O)[C@H](CC(C)C)NC(=O)[C@@H]1CCCN1C(=O)[C@H](C)NC(=O)[C@H](C)NC(=O)[C@H](C)NC(=O)[C@H](Cc1ccc(O)cc1)NC(=O)[C@H](Cc1c[nH]cn1)NC(=O)CNC(=O)CNC(=O)[C@H](CC(N)=O)NC(=O)[C@@H](N)CC(=O)O)[C@@H](C)CC)C(=O)N[C@@H](CCC(N)=O)C(=O)N[C@@H](Cc1c[nH]cn1)C(N)=O [Peptide E07P01] (H-DNGGHYAAAPLLDDIAAIQH-NH2),Cytotoxic activity in vitro,"− (symbol − indicates its absence, following criteria established in Example 2)"
CC[C@H](C)[C@H](NC(=O)[C@H](CC(N)=O)NC(=O)[C@@H](N)C(C)C)C(=O)NCC(=O)NCC(=O)N[C@@H](Cc1c[nH]cn1)C(=O)N[C@@H](CCC(N)=O)C(=O)N[C@@H](C)C(=O)N1CCC[C@H]1C(=O)N[C@@H](CC(=O)O)C(=O)N[C@@H](Cc1ccccc1)C(=O)N[C@@H](CC(C)C)C(=O)N[C@H](C(=O)N[C@@H](CCCCN)C(=O)N[C@H](C(=O)N[C@H](C(=O)NCC(=O)N[C@@H](CCC(N)=O)C(=O)N[C@H](C(=O)N[C@@H](CC(=O)O)C(N)=O)C(C)C)C(C)C)[C@@H](C)CC)C(C)C [Peptide E07P02] (H-VNIGGHQAPDFLVKIVGQVD-NH2),Cytotoxic activity in vitro,"− (symbol − indicates its absence, following criteria established in Example 2)"
"CC[C@H](C)[C@H](NC(=O)[C@H](Cc1ccccc1)NC(=O)[C@H](CC(=O)O)NC(=O)[C@@H](NC(=O)[C@H](C)NC(=O)[C@@H](NC(=O)[C@H](CC(=O)O)NC(=O)[C@@H](NC(=O)[C@H](CCC(N)=O)NC(=O)CNC(=O)[C@@H](NC(=O)[C@@H](NC(=O)[C@H](CCCCN)NC(=O)[C@@H](NC(=O)[C@H](CC(C)C)NC(=O)[C@@H](N)Cc1ccccc1)C(C)C)[C@@H](C)CC)C(C)C)C(C)C)C(C)C)[C@@H](C)O)C(=O)N[C@H](C(N)=O)C(C)C [Peptide E07P03, FLVKIVGQVDVATDFIV- amide] (H-FLVKIVGQVDVATDFIV-NH2)",Cytotoxic activity in vitro,"− (symbol − indicates its absence, following criteria established in Example 2)"
CC[C@H](C)[C@H](NC(=O)[C@H](C)NC(=O)[C@H](C)NC(=O)[C@@H](NC(=O)[C@H](CC(=O)O)NC(=O)[C@H](CC(=O)O)NC(=O)[C@H](CC(C)C)NC(=O)[C@@H](N)CC(C)C)[C@@H](C)CC)C(=O)N[C@@H](CCC(N)=O)C(=O)N[C@@H](Cc1c[nH]cn1)C(=O)N[C@@H](CC(C)C)C(=O)N[C@@H](Cc1ccc(O)cc1)C(=O)NCC(=O)N[C@@H](C)C(=O)N[C@@H](CC(N)=O)C(=O)N1CCC[C@H]1C(=O)N[C@@H](CO)C(=O)N[C@H](C(=O)N[C@@H](CCCNC(=N)N)C(=O)N[C@H](C(N)=O)[C@@H](C)O)[C@@H](C)O [Peptide E07P05] (H-LLDDIAAIQHLYGANPSTRT-NH2),Cytotoxic activity in vitro,"− (symbol − indicates its absence, following criteria established in Example 2)"
CC(C)C[C@H](N)C(=O)N[C@@H](Cc1ccc(O)cc1)C(=O)NCC(=O)N[C@@H](C)C(=O)N[C@@H](CC(N)=O)C(=O)N1CCC[C@H]1C(=O)N[C@@H](CO)C(=O)N[C@H](C(=O)N[C@@H](CCCNC(=N)N)C(=O)N[C@H](C(=O)NCC(=O)N[C@@H](CC(=O)O)C(=O)N[C@H](C(=O)N[C@H](C(=O)N[C@@H](Cc1ccc(O)cc1)C(=O)NCC(=O)N[C@@H](Cc1ccccc1)C(=O)N[C@@H](CC(N)=O)C(=O)N[C@@H](CO)C(=O)N[C@@H](CC(N)=O)C(N)=O)C(C)C)[C@@H](C)O)[C@@H](C)O)[C@@H](C)O [Peptide E07P06] (H-LYGANPSTRTGDTVYGFNSN-NH2),Cytotoxic activity in vitro,"− (symbol − indicates its absence, following criteria established in Example 2)"
same,cytotoxic / biological activity in vitro on tumor cells,no cytotoxic activity
CC[C@H](C)[C@H](NC(=O)[C@@H](NC(=O)[C@H](CCCCN)NC(=O)[C@H](CCC(N)=O)NC(=O)[C@H](CO)NC(=O)[C@H](CC(N)=O)NC(=O)[C@H](CO)NC(=O)[C@@H](NC(=O)[C@@H](NC(=O)[C@H](CO)NC(=O)[C@H](CC(C)C)NC(=O)[C@H](Cc1ccccc1)NC(=O)[C@H](CC(=O)O)NC(=O)[C@H](CCCNC(=N)N)NC(=O)CNC(=O)[C@@H](N)[C@@H](C)O)[C@@H](C)O)[C@@H](C)O)C(C)C)C(=O)N[C@@H](Cc1ccccc1)C(=O)N[C@@H](C)C(=O)N[C@@H](C)C(=O)N[C@@H](Cc1c[nH]c2ccccc12)C(N)=O [Peptide F07P16] (H-TGRDFLSTTSNSQKVIFAAW-NH2),Cytotoxic activity in vitro,"− (symbol − indicates its absence, following criteria established in Example 2)"
same,cytotoxic / biological activity in vitro on tumor cells,no cytotoxic activity; also recorded: inactive

# From patent publication US9375459B2, “Cyclic peptides with an anti-neoplasic and anti-angiogenic activity” (priority 2011, dated 2016)
